Laboratory results as given in ChEMBL document CHEMBL5385846, “Discovery and development of palmatine analogues as anti-NASH agents by activating farnesoid X receptor (FXR)” (Eur J Med Chem, 2023).
Activity calls are given as the source filed them.

Legend:
Mus musculus [1] = assay: Antifibrotic activity in CDAHFD induced non-alcoholic steatohepatitis C57BL/6N mouse model assessed as downregulation of COL1A1 mRNA expression at 200 mg/kg,po qd administration for 4 weeks by qRT-PCR analysis; type: functional, organism-based
Mus musculus [2] = assay: Anti-inflammatory activity in CDAHFD induced C57BL/6N mouse liver injury model assessed as downregulation of IL-6 mRNA expression in liver at 200 mg/kg,po qd administration for 4 weeks by qRT-PCR analysis; type: functional, organism-based
LX-2 = assay: Antifibrotic activity in TGF-beta1 induced human LX2 cells assessed as downregulation of TGF-beta1 protein expression incubated for 24 hrs by western blotting analysis; type: functional, cell-based
Rattus norvegicus = assay: Hepatoprotective activity in bile duct ligation induced Sprague-Dawley rat liver injury model assessed as decrease in AST level at 200 mg/kg,po qd administration for 14 days; type: functional, organism-based; conditions: time 14.0 day
Mus musculus [3] = assay: Anti-inflammatory activity in CDAHFD induced C57BL/6N mouse liver injury model assessed as downregulation of IL-6 protein expression in liver at 200 mg/kg,po qd administration for 4 weeks by Western blotting analysis; type: functional, organism-based

Measured: Activity

COc1cc2c(cc1OC)-c1cc3ccc(OC)c(OCc4cccc(C)c4)c3c[n+]1CC2.[Br-]
active: Mus musculus [1] | Mus musculus [2] | LX-2 Dose-Dependent Effect | Rattus norvegicus | Mus musculus [3]
